Experimental data as given in patent publication US10703733B2, “MCL-1 inhibitors” (Gilead Sciences, Inc., priority 2018, dated 2020).
Like-named read-outs stand apart in the source and are kept apart here.

What was measured:
SKBR3 cells = experiment: SKBR3 Cell Viability Assay (CellTiter Glo); assay type: cell-based; details: CellTiter Glo luminescence, read-out: MCL-1 CV SKBR3 EC50
In short: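 Viability read as CellTiter Glo luminescence after 72 h of compound exposure at 37° C./5% CO2, using 6,000 SKBR3 cells per well in McCoy 5A with 10% FBS. Percent inhibition scaled between DMSO wells and 10 μM puromycin wells.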

[1] = biological target: MCL-1/Bim interaction (recombinant human MCL-1 protein, residues 171-327; biotinylated human Bim peptide, residues 51-76) (Homo sapiens (Human), UniProt Q07820); experiment: MCL-1/Bim Binding AlphaLISA Assay; details: 0.0625 nM 6xHis-Mcl-1 (171-327), 0.0625 nM biotinylated-Bim peptide
Sequence of MCL-1/Bim interaction (recombinant human MCL-1 protein, residues 171-327; biotinylated human Bim peptide, residues 51-76) (Q07820 171-327): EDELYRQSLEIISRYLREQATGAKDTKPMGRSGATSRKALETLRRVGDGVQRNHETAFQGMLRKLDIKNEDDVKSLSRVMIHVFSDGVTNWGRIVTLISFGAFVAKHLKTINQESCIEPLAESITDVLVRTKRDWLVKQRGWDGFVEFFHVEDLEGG
In short: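 Protein 0.0625 nM + cpd, 1 h; add biotin-Bim 0.0625 nM, 2 h; acceptor beads 1 h; donor beads 1 h; AlphaScreen read. Buffer 20 mM Hepes pH 7.5, 150 mM NaCl, 1 mM DTT.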

Row | Compound | EC50 (SKBR3 cells; Homo sapiens, SK-BR-3, 72 h) | IC50 [1] | EC50 (SKBR3 cells; 72 hours)
1 | CO[C@H]1/C=C/C[C@H](C)C[S@@](=O)(NC(=O)N2CC3(CN(C)C(=O)O3)C2)=NC(=O)c2ccc3c(c2)N(C[C@@H]2CC[C@H]21)C[C@@]1(CCCc2cc(Cl)ccc21)CO3 [Example 272] | 47.9 nM | 0.018 nM | –
2 | CCC(=O)N[S@@]1(=O)=NC(=O)c2ccc3c(c2)N(C[C@@H]2CC[C@H]2[C@@H](OC)/C=C/C[C@H](C)[C@H]1C)C[C@@]1(CCCc2cc(Cl)ccc21)CO3 [Example 2] | 792 nM | 1.5 nM | –
3 | CO[C@H]1/C=C/CCC[S@@](=O)(NC(=O)CCc2ccncc2)=NC(=O)c2ccc3c(c2)N(C[C@@H]2CC[C@H]21)C[C@@]1(CCCc2cc(Cl)ccc21)CO3 [Example 41] | 256 nM | 0.1 nM | –
4 | COc1c(C(=O)N[S@@]2(=O)=NC(=O)c3ccc4c(c3)N(C[C@@H]3CC[C@H]3[C@@H](OC)/C=C/C[C@H](C)C2)C[C@@]2(CCCc3cc(Cl)ccc32)CO4)cn2c1COCC2 [Example 191] | 123 nM | 0.103 nM | –
5 | CO[C@H]1/C=C/C[C@H](C)C[S@@](=O)(NC(=O)c2ccn(C3CC3)c2)=NC(=O)c2ccc3c(c2)N(C[C@@H]2CC[C@H]21)C[C@@]1(CCCc2cc(Cl)ccc21)CO3 [Example 156] | 145 nM | 0.111 nM | –
6 | COCC1(NC(=O)N[S@@]2(=O)=NC(=O)c3ccc4c(c3)N(C[C@@H]3CC[C@H]3[C@@H](OC)/C=C/C[C@H](C)C2)C[C@@]2(CCCc3cc(Cl)ccc32)CO4)CC1 [Example 131] | 162 nM | 0.046 nM | –
7 | COc1nn(C)cc1C(=O)N[S@@]1(=O)=NC(=O)c2ccc3c(c2)N(C[C@@H]2CC[C@H]2[C@@H](OC)/C=C\C[C@H](C)C1)C[C@@]1(CCCc2cc(Cl)ccc21)CO3 [Example 228] | 69.9 nM | 0.069 nM | –
8 | CO[C@H]1/C=C/C[C@H](C)C[S@@](=O)(NC(=O)N2CC(n3ccnc3)C2)=NC(=O)c2ccc3c(c2)N(C[C@@H]2CC[C@H]21)C[C@@]1(CCCc2cc(Cl)ccc21)CO3 [Example 348] | 84.7 nM | 0.041 nM | –
9 | COc1nn(C)cc1C(=O)N[S@@]1(=O)=NC(=O)c2ccc3c(c2)N(C[C@@H]2CC[C@H]2[C@@H](OC(=O)OC(C)C)/C=C/C[C@H](C)C1)C[C@@]1(CCCc2cc(Cl)ccc21)CO3 [Example 384] | 154 nM | 0.34 nM | –
10 | CO[C@H]1/C=C/C[C@H](C)C[S@@](=O)(NC(=O)N2CC(C(C)(C)O)C2)=NC(=O)c2ccc3c(c2)N(C[C@@H]2CC[C@H]21)C[C@@]1(CCCc2cc(Cl)ccc21)CO3 [Example 237] | 121 nM | 0.044 nM | –
11 | CO[C@H]1/C=C/C[C@H](C)C[S@@](=O)(NC(=O)N2CC3(CCCO3)C2)=NC(=O)c2ccc3c(c2)N(C[C@@H]2CC[C@H]21)C[C@@]1(CCCc2cc(Cl)ccc21)CO3 [Example 231] | 40 nM | 0.051 nM | –
12 | CO[C@H]1/C=C/C[C@H](C)C[S@@](=O)(NC(=O)c2cn(C)nc2N(C)C)=NC(=O)c2ccc3c(c2)N(C[C@@H]2CC[C@H]21)C[C@@]1(CCCc2cc(Cl)ccc21)CO3 [Example 213] | 57 nM | 0.076 nM | –
13 | COCCNC(=O)N[S@@]1(=O)=NC(=O)c2ccc3c(c2)N(C[C@@H]2CC[C@H]2[C@@H](OC)/C=C/C[C@H](C)C1)C[C@@]1(CCCc2cc(Cl)ccc21)CO3 [Example 132] | 72 nM | 0.038 nM | –
14 | CO[C@H]1/C=C/CCC[S@@](=O)(NC(=O)NC(C)(C)C(F)(F)F)=NC(=O)c2ccc3c(c2)N(C[C@@H]2CC[C@H]21)C[C@@]1(CCCc2cc(Cl)ccc21)CO3 [Example 34] | 3350 nM | 2 nM | –
15 | COC(=O)N1CC[C@H](C(=O)N[S@@]2(=O)=NC(=O)c3ccc4c(c3)N(C[C@@H]3CC[C@H]3[C@@H](OC)/C=C/C[C@H](C)C2)C[C@@]2(CCCc3cc(Cl)ccc32)CO4)C1 [Example 439] | 789 nM | 0.138 nM | –
16 | CO[C@H]1/C=C/C[C@H](C)C[S@@](=O)(NC(=O)c2cc3n(c2)CCCC3)=NC(=O)c2ccc3c(c2)N(C[C@@H]2CC[C@H]21)C[C@@]1(CCCc2cc(Cl)ccc21)CO3 [Example 415] | 105 nM | 0.526 nM | –
17 | CO[C@H]1/C=C/C[C@H](C)C[S@@](=O)(NC(=O)N2CC(N(C)C)C2)=NC(=O)c2ccc3c(c2)N(C[C@@H]2CC[C@H]21)C[C@@]1(CCCc2cc(Cl)ccc21)CO3 [Example 333] | 38.3 nM | 0.039 nM | –

Row | Compound | EC50 (SKBR3 cells; Homo sapiens, SK-BR-3, 72 h) | IC50 [1] | EC50 (SKBR3 cells; 72 hours)
18 | COc1nn(C)cc1C(=O)N[S@@]1(=O)=NC(=O)c2ccc3c(c2)N(C[C@@H]2CC[C@H]2[C@@H](O)CCC[C@H](C)[C@H]1C)C[C@@]1(CCCc2cc(Cl)ccc21)CO3 [Example 290] | 26.4 nM | 0.03 nM | –
19 | CO[C@H]1/C=C/C[C@H](C)C[S@@](=O)(NC(=O)C2CC3(CCOCC3)C2)=NC(=O)c2ccc3c(c2)N(C[C@@H]2CC[C@H]21)C[C@@]1(CCCc2cc(Cl)ccc21)CO3 [Example 435] | 167 nM | 0.114 nM | –
20 | C[C@@H]1[C@@H](C)C/C=C/[C@H](O)[C@@H]2CC[C@H]2CN2C[C@@]3(CCCc4cc(Cl)ccc43)COc3ccc(cc32)C(=O)N=[S@]1(=O)NC(=O)c1cc2n(c1)C[C@H](CN1CCOCC1)OC2 [Example 327] | 28.6 nM | 0.051 nM | –
21 | CO[C@H]1/C=C/C[C@H](C)C[S@@](=O)(NC(=O)N[C@H]2C[C@H](CO)C2)=NC(=O)c2ccc3c(c2)N(C[C@@H]2CC[C@H]21)C[C@@]1(CCCc2cc(Cl)ccc21)CO3 [Example 189] | 64.3 nM | 0.033 nM | –
22 | CC[C@@H]1CC/C=C/[C@H](OC)[C@@H]2CC[C@H]2CN2C[C@@]3(CCCc4cc(Cl)ccc43)COc3ccc(cc32)C(=O)N=S1(=O)NC(=O)CCc1ccnn1C (single isomer, unassigned) [Example 71] | – | 0.7 nM | 1390 nM
23 | CO[C@H]1/C=C/CCCS(=O)(NC(=O)CCn2ccnn2)=NC(=O)c2ccc3c(c2)N(C[C@@H]2CC[C@H]21)C[C@@]1(CCCc2cc(Cl)ccc21)CO3 (single isomer, unassigned) [Example 54] | 3810 nM | 0.2 nM | –
24 | CO[C@H]1/C=C/CCC[S@@](=O)(NC(=O)NC(C)C)=NC(=O)c2ccc3c(c2)N(C[C@@H]2CC[C@H]21)C[C@@]1(CCCc2cc(Cl)ccc21)CO3 [Example 19] | 1080 nM | 1.1 nM | –
25 | CO[C@H]1/C=C/C[C@H](C)C[S@@](=O)(NC(=O)N2CC(C(C)(C)OC)C2)=NC(=O)c2ccc3c(c2)N(C[C@@H]2CC[C@H]21)C[C@@]1(CCCc2cc(Cl)ccc21)CO3 [Example 265] | 96.2 nM | 0.046 nM | –
26 | CO[C@H]1/C=C/C[C@H](C)C[S@@](=O)(NC(=O)c2cn(C)nc2OCC2CC2)=NC(=O)c2ccc3c(c2)N(C[C@@H]2CC[C@H]21)C[C@@]1(CCCc2cc(Cl)ccc21)CO3 [Example 221] | 104 nM | 0.046 nM | –
27 | COc1nn(C)cc1C(=O)N[S@@]1(=O)=NC(=O)c2ccc3c(c2)N(C[C@@H]2CC[C@H]2[C@@H](OC(=O)CC(C)C)/C=C/C[C@H](C)C1)C[C@@]1(CCCc2cc(Cl)ccc21)CO3 [Example 381] | 534 nM | 0.769 nM | –
28 | COc1cc(C(=O)N[S@@]2(=O)=NC(=O)c3ccc4c(c3)N(C[C@@H]3CC[C@H]3[C@@H](OC)/C=C/C[C@H](C)C2)C[C@@]2(CCCc3cc(Cl)ccc32)CO4)c(OC)nn1 [Example 278] | 80.5 nM | 0.089 nM | –
29 | COc1nn(C)cc1C(=O)N[S@@]1(=O)=NC(=O)c2ccc3c(c2)N(C[C@@H]2CC[C@H]2[C@@H](O)/C=C\C[C@H](C)[C@H]1C)C[C@@]1(CCCc2cc(Cl)ccc21)CO3 [Example 343] | 17.3 nM | 0.019 nM | –
30 | CO[C@H]1/C=C/CCC[S@@](=O)(NC(=O)CCc2scnc2C)=NC(=O)c2ccc3c(c2)N(C[C@@H]2CC[C@H]21)C[C@@]1(CCCc2cc(Cl)ccc21)CO3 [Example 93] | 4820 nM | 51 nM | –
31 | COC[C@H]1Cn2cc(C(=O)N[S@@]3(=O)=NC(=O)c4ccc5c(c4)N(C[C@@H]4CC[C@H]4[C@@H](OC)/C=C/C[C@H](C)C3)C[C@@]3(CCCc4cc(Cl)ccc43)CO5)cc2CO1 [Example 214] | 55.9 nM | 0.185 nM | –
32 | CO[C@H]1/C=C/C[C@H](C)C[S@@](=O)(NC(=O)c2cc(C)n(C)c2)=NC(=O)c2ccc3c(c2)N(C[C@@H]2CC[C@H]21)C[C@@]1(CCCc2cc(Cl)ccc21)CO3 [Example 413] | 130 nM | 0.478 nM | –
33 | CO[C@H]1/C=C/C[C@H](C)C[S@@](=O)(NC(=O)c2cc3n(c2)CCC3)=NC(=O)c2ccc3c(c2)N(C[C@@H]2CC[C@H]21)C[C@@]1(CCCc2cc(Cl)ccc21)CO3 [Example 136] | 76.4 nM | 0.183 nM | –
